According to the NIST ThermoML archive (doi:10.1021/je1003065):

Assay: mn = molality of the nth substance listed, in mol/kg
Settings: Liquid, Vibrating tube method

[Br-].[Li+] [lithium bromide] + CCO
Settings	mass density [kg/m3]
273.09 K, 4590 kPa, m1 = 2.272	943.92
273.13 K, 30024 kPa, m1 = 0.2335	841.53
273.14 K, 5012 kPa, m1 = 0.2335	824.8
273.14 K, 29954 kPa, m1 = 2.833	990.17
273.14 K, 49926 kPa, m1 = 2.833	1001.06
273.14 K, 80014 kPa, m1 = 0.2335	868.58
273.15 K, 1023 kPa, m1 = 0.2335	821.76
273.15 K, 1024 kPa, m1 = 0.9499	866.06
273.15 K, 1024 kPa, m1 = 2.833	971.83
273.15 K, 1537 kPa, m1 = 3.368	1000.06
273.15 K, 2048 kPa, m1 = 1.462	896.66
273.15 K, 5002 kPa, m1 = 2.833	974.56
273.15 K, 5021 kPa, m1 = 0.9499	868.77
273.15 K, 10002 kPa, m1 = 0.2335	828.53
273.15 K, 10002 kPa, m1 = 0.9499	872.07
273.15 K, 10177 kPa, m1 = 2.272	947.5
273.15 K, 19956 kPa, m1 = 2.833	984.22
273.15 K, 20031 kPa, m1 = 0.2335	835.19
273.15 K, 20031 kPa, m1 = 0.9499	878.51
273.15 K, 30045 kPa, m1 = 0.9499	884.65
273.15 K, 39945 kPa, m1 = 0.2335	847.51
273.15 K, 39974 kPa, m1 = 2.833	995.79
273.15 K, 40015 kPa, m1 = 0.9499	890.49
273.15 K, 49923 kPa, m1 = 0.2335	853.22
273.15 K, 50027 kPa, m1 = 0.9499	896.06
273.15 K, 59570 kPa, m1 = 2.272	975.51
273.15 K, 60021 kPa, m1 = 2.833	1006.15
273.15 K, 60029 kPa, m1 = 0.9499	901.35
273.15 K, 69980 kPa, m1 = 2.272	980.49
273.15 K, 70002 kPa, m1 = 0.9499	906.34
273.15 K, 70003 kPa, m1 = 0.2335	863.78
273.15 K, 70035 kPa, m1 = 2.833	1010.98
273.15 K, 79857 kPa, m1 = 2.272	985.04
273.15 K, 79954 kPa, m1 = 0.9499	911.03
273.15 K, 89925 kPa, m1 = 2.272	989.55
273.15 K, 89935 kPa, m1 = 0.9499	915.46
273.15 K, 89956 kPa, m1 = 2.833	1020.12
273.15 K, 90023 kPa, m1 = 0.2335	873.07
273.15 K, 99945 kPa, m1 = 0.2335	877.21
273.15 K, 99986 kPa, m1 = 0.9499	919.63
273.15 K, 99986 kPa, m1 = 2.833	1024.57
273.16 K, 5195 kPa, m1 = 1.462	898.75
273.16 K, 10032 kPa, m1 = 2.833	977.92
273.16 K, 20027 kPa, m1 = 3.368	1011.76
273.16 K, 29980 kPa, m1 = 3.368	1017.69
273.16 K, 39977 kPa, m1 = 3.368	1023.39
273.16 K, 49994 kPa, m1 = 0.5972	875.26
273.16 K, 59884 kPa, m1 = 0.5972	880.54
273.16 K, 59985 kPa, m1 = 0.2335	858.67
273.16 K, 69990 kPa, m1 = 0.5972	885.63
273.16 K, 80061 kPa, m1 = 2.833	1015.64
273.16 K, 100090 kPa, m1 = 2.272	994.02
273.17 K, 1948 kPa, m1 = 2.272	941.72
273.17 K, 9742 kPa, m1 = 1.462	901.73
273.17 K, 10114 kPa, m1 = 3.368	1005.6
273.17 K, 19964 kPa, m1 = 0.5972	857.46
273.17 K, 20349 kPa, m1 = 2.272	953.97
273.17 K, 29947 kPa, m1 = 2.272	959.72
273.17 K, 29993 kPa, m1 = 0.5972	863.7
273.17 K, 39918 kPa, m1 = 0.5972	869.58
273.17 K, 49964 kPa, m1 = 2.272	970.63
273.17 K, 49974 kPa, m1 = 3.368	1028.82
273.17 K, 80091 kPa, m1 = 0.5972	890.43
273.17 K, 89924 kPa, m1 = 3.368	1047.9
273.17 K, 89993 kPa, m1 = 0.5972	894.84
273.17 K, 99951 kPa, m1 = 3.368	1052.03
273.18 K, 1306 kPa, m1 = 0.5972	845.06
273.18 K, 4686 kPa, m1 = 0.5972	847.38
273.18 K, 4965 kPa, m1 = 3.368	1002.3
273.18 K, 9917 kPa, m1 = 0.5972	850.91
273.18 K, 20115 kPa, m1 = 1.462	908.3
273.18 K, 29966 kPa, m1 = 1.462	914.27
273.18 K, 49922 kPa, m1 = 1.462	925.55
273.18 K, 60091 kPa, m1 = 1.462	930.87
273.18 K, 60277 kPa, m1 = 3.368	1034.14
273.18 K, 69993 kPa, m1 = 1.462	935.78
273.18 K, 69994 kPa, m1 = 3.368	1038.9
273.18 K, 79725 kPa, m1 = 3.368	1043.43
273.18 K, 80129 kPa, m1 = 1.462	940.52
273.18 K, 89963 kPa, m1 = 1.462	944.86
273.18 K, 100098 kPa, m1 = 0.5972	899.04
273.19 K, 39973 kPa, m1 = 1.462	920.07
273.19 K, 40359 kPa, m1 = 2.272	965.49
273.2 K, 99708 kPa, m1 = 1.462	948.89
293.12 K, 9790 kPa, m1 = 1.462	886.75
293.13 K, 1999 kPa, m1 = 1.462	881.23
293.13 K, 5005 kPa, m1 = 1.462	883.38
293.13 K, 19962 kPa, m1 = 1.462	893.68
293.13 K, 29997 kPa, m1 = 1.462	900.21
293.13 K, 30014 kPa, m1 = 0.2335	827.08
293.13 K, 40468 kPa, m1 = 1.462	906.69
293.13 K, 49901 kPa, m1 = 1.462	912.25
293.13 K, 59950 kPa, m1 = 3.368	1019.25
293.14 K, 5014 kPa, m1 = 0.2335	809.13
293.14 K, 10097 kPa, m1 = 3.368	989.9
293.14 K, 19953 kPa, m1 = 2.833	969.14
293.14 K, 49968 kPa, m1 = 2.833	986.92
293.14 K, 49985 kPa, m1 = 0.2335	839.79
293.14 K, 59817 kPa, m1 = 0.5972	867.48
293.14 K, 60137 kPa, m1 = 1.462	917.97
293.14 K, 69946 kPa, m1 = 3.368	1024.25
293.14 K, 69979 kPa, m1 = 0.5972	872.97
293.14 K, 69979 kPa, m1 = 1.462	923.18
293.14 K, 79675 kPa, m1 = 0.5972	877.88
293.15 K, 1003 kPa, m1 = 0.2335	805.64
